The values that follow come from patent US5204361A, “Method for treating laminitis in equine livestock” (priority 1988, dated 1993).

For one assay, the system named is cattle. The note with it: Nagaraja et al. (1981); cited from earlier work.
Assay [1] relates to caecal/large colon digesta. As to the kind of experiment: Experiment 2 Part 2: in vitro fermentation with cornstarch, antibiotics at or below 2 ug/ml. The note with it: cornstarch 0.75 g per flask, 16 hours, mean. It counts as cell-based, horse. How it is done:
(§1) Digesta was taken from the caecum and large colon from recently slaughtered animals and was filtered through nylon gauze (approximately 60 micron apertures). The fluid was diluted 1:1 with a buffer solution described by Bales et al. (1976) and incubated with wheat "corn starch" (with or without antibiotics) at 37° for 16 to 20 hours. Aliquots of digesta diluted with buffer (50 ml) were added to 100 ml conical flasks. The flasks were flushed with carbon dioxide before being sealed with a tightly fitting rubber cap. A 21 gauge needle was inserted through the rubber seal in order to allow gas to escape during the fermentation. On removal from the incubator sub-samples were immediately taken to measure L-lactic acid concentration and pH. For each treatment or level of antibiotic three replicate incubation flasks were used.
Incubation flasks were set up as described above with cornstarch (0.75 g) containing virginiamycin, flavomycin or zinc-bacitracin a levels to provide: 0, 0.25, 0.5, 1.0 and 2 ug antibiotic/ml incubation mixture. These flasks were incubated for 16 hours. Flasks were also set up with 0.75 g cornstarch and no antibiotic equipped with a tap and sampling tube in order to take samples from the incubation vessels at various times during the fermentation. Samples were taken at the start of the incubation and at 2, 4, 6, 8, 12 and 24 h. These were analysed for L-lactate concentration and pH.

Assay [2] has as its system caecal and large colon contents. Description: Experiment 2 Part 3: in vitro screening at 2 ug/ml in digesta of four horses. It counts as cell-based, horse. To be noted: 2 ug antibiotic/ml, 15 mg cornstarch/ml, 20 hour incubation. As for the experimental part:
as §1
All four of the antibiotics, listed above, were incubated as previously described to provide 2 ug antibiotic and 15 mg cornstarch per ml incubation mixture. There was one flask per test and each antibiotic was incubated in digesta from both the caecum and the large colon taken from each of 4 animals. Samples of incubation fluid were taken following a 20 hour incubation and were analysed for L-lactate and pH.

In assay [3] the test system is mixed caecal/large colon digesta. Description: Experiment 2 Part 1: in vitro fermentation of digesta with cornstarch, avoparcin, virginiamycin, flavomycin 2-32 ug/ml. To be noted: cornstarch 15 mg/ml; for pH / Acet:Prop / Lactate / Total VFA: mean. Further details: Lactate / Total VFA: unit not given here. It counts as cell-based, horse. As for the experimental part:
as §1
A range of concentrations of cornstarch providing: 0, 5, 10, 15 and 20 mg/ml diluted digesta (i.e. from 0 to 1 g cornstarch/conical flask) were tested to determine the amount required to produce a pattern of fermentation with high levels of lactic acid. Flasks were also prepared with cornstarch mixed with antibiotic premixes to provide 15 mg cornstarch/ml incubation mixture and 0, 2, 4, 8, 16 and 32 ug of avoparcin, virginiamycin or flavomycin per ml incubation mixture. After approximately 16 hour incubation at 37° samples were taken to measure lactic acid, VFA and pH.

Assay [4] has as its system caecal/large colon digesta. Description: Experiment 2 Part 5: efficacy of tylosin relative to virginiamycin, digesta incubated with glucose. Type of assay: cell-based, horse. To be noted: antibiotic 1.00 μg/ml, 37°, 20 hours, mean.
The test system of assay [5] is caecal/large colon digesta. The assay is described as above. Type of assay: cell-based, horse. To be noted: for L-lactate: digesta incubated with glucose, 37°, 20 hours, mean. How it is done: An in vitro fermentation experiment was conducted to determine the efficacy of tylosin relative to virginiamycin. Samples of strained caecal and large colon digesta (16 ml) were incubated with glucose solution (60 ug/ml) (4 ml) and varying concentrations of either tylosin or virginiamycin representing […], 2.0, 4.0 ug of tylosin or virginiamycin per ml. The 25 ml containers were incubated at 37° for 20 hours. There were three replicates per treatment.

For a further assay, the system named is sheep. To be noted: sheep; Muir et al (1980); cited from earlier work.
[6] abbreviates: Horse 1, mean of caecum and large colon.
Where [7] appears, read: Horse 2, mean of caecum and large colon.
The mark [8] stands for this setting: Horse 3, mean of caecum and large colon.
[9] abbreviates: Horse 4, mean of caecum and large colon.
Where [10] appears, read: antibiotic 2 μg/ml, approx 16 hour incubation.
Where [11] appears, read: antibiotic 4 μg/ml, approx 16 hour incubation.
Setting [12] is: antibiotic 8 μg/ml, approx 16 hour incubation.
[13] abbreviates: antibiotic 16 μg/ml, approx 16 hour incubation.
Setting [14] is: antibiotic 32 μg/ml, approx 16 hour incubation.

As to `CC[C@@H](C(=O)[C@@H](C)[C@@H](O)[C@H](C)CCc1ccc(C)c(O)c1C(=O)O)[C@H]1O[C@](CC)([C@H]2CC[C@](O)(CC)[C@H](C)O2)C[C@@H]1C` [lasalocid], in the assay on cattle, the “control of lactic acidosis” value is given as “lactic acidosis could be controlled”.
flavomycin (bambermycin): the L-lactate is 12.4 mmol/L in assay [1] (antibiotic 0.25 μg/ml); 7.3 mmol/L in assay [1] (antibiotic 0.50 μg/ml); 9.9 mmol/L in assay [1] (antibiotic 1.00 μg/ml); 11.7 mmol/L in assay [1] (antibiotic 2.00 μg/ml); 31.8 mmol/L in assay [2] (setting [6]); 55.6 mmol/L in assay [2] (setting [7]). Moreover, the figures for the L-lactate in assay [2] (setting [8]), in assay [2] (setting [9]) and in assay [2] (Mean of 4 horses) were 17.9 mmol/L, 23.7 mmol/L and 32.2 mmol/L, respectively. In addition, the pH came out at 5.69 in assay [1] (antibiotic 0.25 μg/ml); 5.67 in assay [1] (antibiotic 0.50 μg/ml); 5.67 in assay [1] (antibiotic 1.00 μg/ml); 5.56 in assay [1] (antibiotic 2.00 μg/ml); 4.88 in assay [2] (Horse 1); 4.54 in assay [2] (Horse 2). Further, the pH in assay [2] (Horse 3) is listed as 4.98; in assay [2] (Horse 4), 5.07; in assay [2] (Mean of 4 horses), 4.86; in assay [3] (antibiotic 2 μg/ml, approx 16 hour incubation at 37°), 6.57; in assay [3] (setting [11]), 6.52; in assay [3] (setting [12]) it was 6.48. The values for the pH in assay [3] (setting [13]) and in assay [3] (setting [14]) were 6.47 and 6.41, respectively. Also, the “Acet:Prop” value turned out to be 3.4 in assay [3] (setting [10]); 4.6 in assay [3] (setting [11]); 5.7 in assay [3] (setting [12]); 5.8 in assay [3] (setting [13]); 5.8 in assay [3] (setting [14]). The Lactate worked out at 0.0 in assay [3] (setting [10]); 0.0 in assay [3] (setting [11]); 0.0 in assay [3] (setting [12]); 0.0 in assay [3] (setting [13]); 0.2 in assay [3] (setting [14]). Further, the “Total VFA” value in assay [3] (setting [10]) turned out to be 88.9; in assay [3] (setting [11]), 93.7; in assay [3] (setting [12]), 90.0; in assay [3] (setting [13]), 85.6; in assay [3] (setting [14]), 93.7. Also, the “control of lactic acid build-up” value in assay [3] (at concentrations as low as 2 g/ml) is “total control”.
For the compound `CC[C@H]1OC(=O)C[C@@H](O)[C@H](C)[C@@H](O[C@@H]2O[C@H](C)[C@@H](O[C@H]3C[C@@](C)(O)[C@@H](O)[C@H](C)O3)[C@H](N(C)C)[C@H]2O)[C@@H](CC=O)C[C@@H](C)C(=O)/C=C/C(C)=C/[C@@H]1CO[C@@H]1O[C@H](C)[C@@H](O)[C@@H](OC)[C@H]1OC` [Tylosin, tylosin], the L-lactate in assay [4] turned out to be 45.1 mmol/L; in assay [5] (antibiotic 0.50 μg/ml), 122 mmol/L; in assay [5] (antibiotic 2.00 μg/ml), 38.7 mmol/L; in assay [5] (antibiotic 4.00 μg/ml), 11.7 mmol/L. For the same compound, the “reduction in lactic acid levels compared with virginiamycin” value in assay [5] (at the concentrations used (0.5-4 ug/ml)) was “did not cause the same reduction”. In assay [5] (higher levels of tylosin than virginiamycin required for similar reduction), the “concentration of lactic acid during the fermentation of soluble carbohydrate” value is recorded as “can reduce the concentration of lactic acid”.
For bacitracin zinc [Zn-bacitracin], the L-lactate in assay [1] (antibiotic 0.25 μg/ml) was 20.6 mmol/L; in assay [1] (antibiotic 0.50 μg/ml), 17.8 mmol/L; in assay [1] (antibiotic 1.00 μg/ml), 15.9 mmol/L; in assay [1] (antibiotic 2.00 μg/ml), 14.7 mmol/L; in assay [2] (setting [6]), 26.8 mmol/L; in assay [2] (setting [7]), 62.5 mmol/L. The L-lactate in assay [2] (setting [8]) came out at 35.1 mmol/L; in assay [2] (setting [9]), 22.2 mmol/L; in assay [2] (Mean of 4 horses), 36.6 mmol/L. Moreover, the pH in assay [1] (antibiotic 0.25 μg/ml) is 5.64; in assay [1] (antibiotic 0.50 μg/ml), 5.86; in assay [1] (antibiotic 1.00 μg/ml), 5.68; in assay [1] (antibiotic 2.00 μg/ml), 5.59; in assay [2] (Horse 1), 4.91; in assay [2] (Horse 2), 4.59. The results for the pH in assay [2] (Horse 3), in assay [2] (Horse 4) and in assay [2] (Mean of 4 horses) were 4.76, 5.11 and 4.84, respectively.
For thiopeptin, the “control of wheat-induced acidosis” value with sheep was “control of wheat-induced acidosis”.
